Counter-ions that a name gives are not always drawn. Like-named read-outs stand apart in the source and are kept apart here.
Legend:
[1] = system: Gad1 H3K4me2 level in rat primary culture neurons; assay: Gad1 H3K4 methylation induction activity in rat primary culture neurons (ChIP-qPCR); type: cell-based; details: Rattus norvegicus, Neuron, 72 h, control without compound = 100%; for activity at 1 µM: read-out: Gad1 H3K4me2 induction activity (%), compound 1 μM, 3 days, rat primary culture neurons; for activity at 10 µM: read-out: Gad1 H3K4me2 induction activity (%), compound 10 μM, 3 days, rat primary culture neurons
Procedure: Gad1 H3K4 Methylation Induction Activity in Rat Primary Culture Neurons
Thereafter, the compound was added to final concentrations of 1 or 10 μM, and the cells were further cultured for 3 days. The culture supernatant was aspirated, ice-cold PBS was added, and the cell suspension was collected on ice using CELL SCRAPER (IWAKI). […] (750 μL). Furthermore, 0.3% NP40/cell lysis buffer 1 (750 μL) was added, and the cells were lysed by incubating for 5 min on ice.
Using the DNA obtained by the chromatin immunoprecipitation as a template, quantitative PCR of the Gad1 gene upstream genomic region was performed, and the measurement value was taken as the Gad1 H3K4me2 level. […] The Gad1 H3K4me2 induction by the compound was expressed by the H3K4me2 level when the compound was added, as compared to the H3K4me2 level of the control (without addition of the compound) as 100%.

[2] = system: white blood cell number, red blood cell number, platelet number; assay: Evaluation of blood cell number in mouse; type: in vivo; details: oral, Day 2 after administration
Procedure, shortened: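 Male ICR mice dosed orally at 1, 10, 50 or 100 mg/kg (suspension in 0.5% methylcellulose/0.02% citric acid/water); whole blood collected on Day 2. White cell, red cell and platelet counts per unit volume by automated haematology analyser, expressed as % of mean of untreated control group.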

[3] = Evaluation of hippocampal distribution in mouse; type: in vivo; details: male ICR mice, 10 mg/kg oral; for concentration at 1 h: 1 hr after administration; for concentration at 0.5 h: 0.5 hr after administration
Procedure, shortened: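 Male ICR mice dosed orally at 10 mg/kg as suspension in 0.5% methylcellulose/0.02% citric acid/water. Plasma and hippocampus sampled together at 0.5, 1 or 1.5 h; LC/MS/MS concentrations gave hippocampus/plasma ratio.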

[4] = hippocampus, read-out: hippocampus concentration (mean)
[5] = plasma, read-out: plasma concentration (mean)

Cc1nnc(NC(=O)c2cccc([C@@H]3C[C@H]3NC3CCOCC3)c2)s1 (relative stereo) [Example 165, N-(5-methyl-1,3,4-thiadiazol-2-yl)-3-(trans-2-(tetrahydro-2H-pyran-4-ylamino)cyclopropyl)benzamide fumarate]
activity at 1 µM [1]: 272% | activity at 10 µM [1]: 373% | platelet number, percentage of compound administration group compared to control group, mean ([2]; 10 mg/kg): 99.3% | red blood cell number, percentage of compound administration group compared to control group, mean ([2]; 10 mg/kg): 100.9% | white blood cell number, percentage of compound administration group compared to control group, mean ([2]; 10 mg/kg): 104.4% | platelet number, percentage of compound administration group compared to control group, mean ([2]; 100 mg/kg): 85.6% | red blood cell number, percentage of compound administration group compared to control group, mean ([2]; 100 mg/kg): 103.2% | white blood cell number, percentage of compound administration group compared to control group, mean ([2]; 100 mg/kg): 87.0% | concentration at 1 h [3, 4]: 376 ng/g | concentration at 1 h [3, 5]: 1840 ng/mL

O=C(NC1CCCC1)c1cccc([C@@H]2C[C@H]2NC2CCOCC2)c1 (relative stereo) [Example 168, N-cyclopentyl-3-(trans-2-(tetrahydro-2H-pyran-4-ylamino)cyclopropyl)benzamide hydrochloride]
activity at 1 µM [1]: 227% | activity at 10 µM [1]: 263% | platelet number, percentage of compound administration group compared to control group, mean ([2]; 10 mg/kg): 106.8% | red blood cell number, percentage of compound administration group compared to control group, mean ([2]; 10 mg/kg): 106.5% | white blood cell number, percentage of compound administration group compared to control group, mean ([2]; 10 mg/kg): 97.6% | platelet number, percentage of compound administration group compared to control group, mean ([2]; 100 mg/kg): 99.0% | red blood cell number, percentage of compound administration group compared to control group, mean ([2]; 100 mg/kg): 101.1% | white blood cell number, percentage of compound administration group compared to control group, mean ([2]; 100 mg/kg): 93.6% | concentration at 0.5 h [3, 4]: 439 ng/g | concentration at 0.5 h [3, 5]: 451 ng/mL

Cc1nnc(NC(=O)c2cc([C@@H]3C[C@H]3NCC3CC3)ccc2F)s1 (relative stereo) [Example 110, 5-(trans-2-((cyclopropylmethyl)amino)cyclopropyl)-2-fluoro-N-(5-methyl-1,3,4-thiadiazol-2-yl)benzamide dihydrochloride]
activity at 1 µM [1]: 172% | activity at 10 µM [1]: 208% | platelet number, percentage of compound administration group compared to control group, mean ([2]; 10 mg/kg): 93.4% | red blood cell number, percentage of compound administration group compared to control group, mean ([2]; 10 mg/kg): 98.7% | white blood cell number, percentage of compound administration group compared to control group, mean ([2]; 10 mg/kg): 114.9% | platelet number, percentage of compound administration group compared to control group, mean ([2]; 100 mg/kg): 96.4% | red blood cell number, percentage of compound administration group compared to control group, mean ([2]; 100 mg/kg): 100.4% | white blood cell number, percentage of compound administration group compared to control group, mean ([2]; 100 mg/kg): 112.0% | concentration at 0.5 h [3, 4]: 3300 ng/g | concentration at 0.5 h [3, 5]: 4490 ng/mL

O=C(NC1CC(F)(F)C1)c1cccc([C@@H]2C[C@H]2NCC2CC2)c1 (relative stereo) [Example 99, 3-(trans-2-((cyclopropylmethyl)amino)cyclopropyl)-N-(3,3-difluorocyclobutyl)benzamide hydrochloride]
activity at 1 µM [1]: 174% | activity at 10 µM [1]: 181% | platelet number, percentage of compound administration group compared to control group, mean ([2]; 10 mg/kg): 116.9% | red blood cell number, percentage of compound administration group compared to control group, mean ([2]; 10 mg/kg): 102.8% | white blood cell number, percentage of compound administration group compared to control group, mean ([2]; 10 mg/kg): 66.0% | platelet number, percentage of compound administration group compared to control group, mean ([2]; 100 mg/kg): 111.1% | red blood cell number, percentage of compound administration group compared to control group, mean ([2]; 100 mg/kg): 101.5% | white blood cell number, percentage of compound administration group compared to control group, mean ([2]; 100 mg/kg): 79.4% | concentration at 1 h [3, 4]: 283 ng/g | concentration at 1 h [3, 5]: 143 ng/mL

Cc1cc(NC(=O)c2cccc([C@@H]3C[C@H]3NCC3CC3)c2)no1 (relative stereo) [Example 103, 3-(trans-2-((cyclopropylmethyl)amino)cyclopropyl)-N-(5-methyl-1,2-oxazol-3-yl)benzamide hydrochloride]
activity at 1 µM [1]: 139% | activity at 10 µM [1]: 134% | platelet number, percentage of compound administration group compared to control group, mean ([2]; 10 mg/kg): 88.7% | red blood cell number, percentage of compound administration group compared to control group, mean ([2]; 10 mg/kg): 95.0% | white blood cell number, percentage of compound administration group compared to control group, mean ([2]; 10 mg/kg): 100.9% | platelet number, percentage of compound administration group compared to control group, mean ([2]; 100 mg/kg): 96.8% | red blood cell number, percentage of compound administration group compared to control group, mean ([2]; 100 mg/kg): 98.5% | white blood cell number, percentage of compound administration group compared to control group, mean ([2]; 100 mg/kg): 105.9% | concentration at 1 h [3, 4]: 1030 ng/g | concentration at 1 h [3, 5]: 375 ng/mL

O=C(NC1CCN(CC(F)(F)F)CC1)c1cccc([C@@H]2C[C@H]2NCC2CC2)c1 (relative stereo) [Example 108, 3-(trans-2-((cyclopropylmethyl)amino)cyclopropyl)-N-(1-(2,2,2-trifluoroethyl)piperidin-4-yl)benzamide dihydrochloride]
activity at 1 µM [1]: 384% | activity at 10 µM [1]: 268% | platelet number, percentage of compound administration group compared to control group, mean ([2]; 10 mg/kg): 101.9% | red blood cell number, percentage of compound administration group compared to control group, mean ([2]; 10 mg/kg): 99.0% | white blood cell number, percentage of compound administration group compared to control group, mean ([2]; 10 mg/kg): 127.7% | platelet number, percentage of compound administration group compared to control group, mean ([2]; 100 mg/kg): 94.2% | red blood cell number, percentage of compound administration group compared to control group, mean ([2]; 100 mg/kg): 98.7% | white blood cell number, percentage of compound administration group compared to control group, mean ([2]; 100 mg/kg): 129.4% | concentration at 0.5 h [3, 4]: 983 ng/g | concentration at 0.5 h [3, 5]: 684 ng/mL

O=C(NC1CCC(F)(F)CC1)c1cccc([C@@H]2C[C@H]2NC2CCOCC2)c1 (relative stereo) [Example 177, N-(4,4-difluorocyclohexyl)-3-(trans-2-(tetrahydro-2H-pyran-4-ylamino)cyclopropyl)benzamide hydrochloride]
activity at 1 µM [1]: 340% | activity at 10 µM [1]: 200% | platelet number, percentage of compound administration group compared to control group, mean ([2]; 10 mg/kg): 101.3% | red blood cell number, percentage of compound administration group compared to control group, mean ([2]; 10 mg/kg): 94.5% | white blood cell number, percentage of compound administration group compared to control group, mean ([2]; 10 mg/kg): 136.9% | platelet number, percentage of compound administration group compared to control group, mean ([2]; 100 mg/kg): 97.4% | red blood cell number, percentage of compound administration group compared to control group, mean ([2]; 100 mg/kg): 99.0% | white blood cell number, percentage of compound administration group compared to control group, mean ([2]; 100 mg/kg): 97.1% | concentration at 1 h [3, 4]: 324 ng/g | concentration at 1 h [3, 5]: 630 ng/mL

Cn1cc(NC(=O)c2cc([C@@H]3C[C@H]3NC3CCC(F)(F)CC3)ccc2F)cn1 (relative stereo) [Example 186, 5-(trans-2-((4,4-difluorocyclohexyl)amino)cyclopropyl)-2-fluoro-N-(1-methyl-1H-pyrazol-4-yl)benzamide hydrochloride]
activity at 1 µM [1]: 239% | activity at 10 µM [1]: 191% | platelet number, percentage of compound administration group compared to control group, mean ([2]; 10 mg/kg): 93.1% | red blood cell number, percentage of compound administration group compared to control group, mean ([2]; 10 mg/kg): 101.5% | white blood cell number, percentage of compound administration group compared to control group, mean ([2]; 10 mg/kg): 129.3% | platelet number, percentage of compound administration group compared to control group, mean ([2]; 100 mg/kg): 88.2% | red blood cell number, percentage of compound administration group compared to control group, mean ([2]; 100 mg/kg): 99.2% | white blood cell number, percentage of compound administration group compared to control group, mean ([2]; 100 mg/kg): 111.2% | concentration at 0.5 h [3, 4]: 3120 ng/g | concentration at 0.5 h [3, 5]: 1320 ng/mL

Source: US9751885B2, “Cyclopropanamine compound and use thereof” (Takeda Pharmaceutical Company Limited, priority 2012, dated 2017)
